How the values were obtained:
[1] = test system: isolated islets of Langerhans derived from control mice; test: Insulin secretion from isolated islets of Langerhans of control mice with addition of palmitic acid; assay type: cell-based, mouse; settings: 0.5 mM palmitic acid, 11 mM glucose, cultured 1 hour, insulin corrected by DNA amount
Experimental: (§1) Starting at 8 week-old, transgenic mice of the 47M strain and 23F strain were fed with a low-fat diet (D12450B, 10 kcal % fat, manufactured by Research Diets, Inc.) or a high-fat diet (D12492, 60 kcal % fat, manufactured by Research Diets, Inc.) for 8 weeks. Each mouse at 16 week-old had the duodenal side ligated, and the common bile duct cannulated, and a 1 mg/ml collagenase solution (manufactured by Wako Pure Chemical) was injected into the mouse pancreas. The pancreas receiving the injection was excised, placed in a tube containing the same collagenase solution, and shaken at 37° C. for 20 minutes. Subsequently, the solution was vigorously mixed for 30 seconds, and a Quenching buffer solution (Hanks Balanced Salt Solution comprising 0.001% DNaseI and 25 mM HEPES) containing 10% FBS was added to make a total volume of 20 ml. The solution was transferred to a Petri dish, and washed twice with the Quenching buffer solution, after which islets of Langerhans were recovered using a pipette under a microscopy, and this was used as the test sample. […] Meanwhile, after cultivation, islets of Langerhans were disrupted by sonication using a sonicator (manufactured by M & S Instruments Trading Inc.), the amount of DNA was determined using a Quant-iT™ Picogreen ds DNA Assay kit (manufactured by Molecular Probes), and the amount of insulin secreted was corrected.

[2] = test system: isolated islets of Langerhans derived from human GPR40 gene transgenic mice of the 47M strain; test: Insulin secretion from isolated islets of Langerhans of human GPR40 gene transgenic mice (47M strain) with addition of palmitic acid; assay type: cell-based; settings: transgenic mouse 47M strain islets; 0.5 mM palmitic acid, 11 mM glucose, cultured 1 hour; insulin corrected by DNA amount
Experimental: as §1

Structure (SMILES): CCCCCCCCCCCCCCCC(=O)O [palmitic acid]
- amount of insulin secreted, increase compared with the no-addition group [1]: about 1.5 times
- amount of insulin secreted, increase compared with the no-addition group [2]: about 6 times
